# Experimental data published in patent publication US20080188481A1 (priority 2002, published 2008).
# System: HIV-1 single-round infectious reporter virus
# Experiment: Single-round infectious HIV-1 luciferase reporter virus infection of HeLa CD4 cells (antiviral EC50)
# Format: cell-based
# Conditions: Human immunodeficiency virus 1, HeLa, 72 h, read-out: EC50 Group from Table 1
# Method in brief: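 HeLa CD4 cells infected with env-pseudotyped, luciferase-reporter single-round HIV-1 (MOI ~0.01) in presence of compound (final ≤10 μM), harvested 72 h at 37 °C. Luciferase luminescence expressed as percent inhibition versus no-compound control; EC50 from 10-concentration four-parameter logistic fit.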
row,SMILES,EC50
1,"COc1ncc(OC)c2c(C(=O)C(=O)N3CCC(=C(C#Cc4ccccc4)c4ccccc4)CC3)c[nH]c12 [Example 118, 1-[4-(1-Phenyl-1-(2-phenylethyn-1-yl)-methylene)-piperidin-1-yl]-2-(4,7-dimethoxy-6-azaindol-3-yl)-ethane-1,2-dione]",< 1000 nM
2,"COc1ncc(OC)c2c(C(=O)C(=O)N3CCC(=C(C#CC(=O)O)c4ccccc4)CC3)c[nH]c12 [Example 119, 1-[4-(1-Phenyl-1-(2-carboxyethyn-1-yl)-methylene)-piperidin-1-yl]-2-(4,7-dimethoxy-6-azaindol-3-yl)-ethane-1,2-dione]",< 1000 nM
3,"COc1cnc(-n2cnc(C)n2)c2[nH]cc(C(=O)C(=O)N3CCC(=C(c4ccccc4)c4cncc(CO)c4)CC3)c12 [Example 120, 1-[4-(1-Phenyl-1-(5-hydroxymethylpyridin-3-yl)-methylene)-piperidin-1-yl]-2-[4-methoxy-7-(3-methyl-1,2,4-triazol-1-yl)-6-azaindol-3-yl]-ethane-1,2-dione]",< 1000 nM
4,CCOC(=O)c1cncc(C(=C2CCN(C(=O)C(=O)c3c[nH]c4c(-n5cnc(C)n5)ncc(OC)c34)CC2)c2ccccc2)c1 [Example 121],< 1000 nM
5,"COc1ncc(OC)c2c(C(=O)C(=O)N3CCC(=C(C#N)c4nnc(-c5ccccc5)o4)CC3)c[nH]c12 [Example 122, 1-[4-(1-Cyano-1-(5-phenyl-1,3,4-oxadiazol-2-yl)-methylene)-piperidin-1-yl]-2-(4,7-dimethoxy-6-azaindol-3-yl)-ethane-1,2-dione]",> 5000 nM
6,"COc1ncc(OC)c2c(C(=O)C(=O)N3CCC(=C(C#N)c4nc5ccccc5s4)CC3)c[nH]c12 [Example 123, 1-[4-(1-Cyano-1-benzothiazol-2-yl-methylene)-piperidin-1-yl]-2-(4,7-dimethoxy-6-azaindol-3-yl)-ethane-1,2-dione]",> 5000 nM
7,"COc1ncc(OC)c2c(C(=O)C(=O)N3CCC(=C(C#N)c4cncs4)CC3)c[nH]c12 [Example 124, 1-[4-(1-Cyano-1-thiazol-5-yl-methylene)-piperidin-1-yl]-2-(4,7-dimethoxy-6-azaindol-3-yl)-ethane-1,2-dione]",< 1000 nM
8,"COc1ncc(OC)c2c(C(=O)C(=O)N3CCC(=C(C#N)c4c(C)sc(C)c4C)CC3)c[nH]c12 [Example 125, 1-[4-(1-Cyano-1-(2,3,5-trimethylthien-4-yl)-methylene)-piperidin-1-yl]-2-(4,7-dimethoxy-6-azaindol-3-yl)-ethane-1,2-dione]",> 5000 nM
9,"COc1ncc(OC)c2c(C(=O)C(=O)N3CCC(=C(C#N)c4ccsc4)CC3)c[nH]c12 [Example 126, 1-[4-(1-Cyano-1-thien-3-yl-methylene)-piperidin-1-yl]-2-(4,7-dimethoxy-6-azaindol-3-yl)-ethane-1,2-dione]",< 1000 nM
10,"COc1ncc(OC)c2c(C(=O)C(=O)N3CCC(=C(C#N)c4coc5ccccc45)CC3)c[nH]c12 [Example 127, 1-[4-(1-Cyano-1-benzofuran-3-yl-methylene)-piperidin-1-yl]-2-(4,7-dimethoxy-6-azaindol-3-yl)-ethane-1,2-dione]",< 1000 nM
11,"COc1ncc(OC)c2c(C(=O)C(=O)N3CCC(=C(C#N)c4csc5ccccc45)CC3)c[nH]c12 [Example 128, 1-[4-(1-Cyano-1-benzothien-3-yl-methylene)-piperidin-1-yl]-2-(4,7-dimethoxy-6-azaindol-3-yl)-ethane-1,2-dione]",< 1000 nM
12,"N#CC(=C1CCN(C(=O)C(=O)c2c[nH]c3c(-n4ccnn4)ncc(F)c23)CC1)c1ccccc1 [Example 129a, {1-[2-(4-Fluoro-7-[1,2,3]triazol-1-yl-1H-pyrrolo[2,3-c]pyridin-3-yl)-2-oxo-acetyl]-piperidin-4-ylidene}-phenyl-acetonitrile]",< 1000 nM
13,"C=C(C)c1nnc(C(=C2CCN(C(=O)C(=O)c3c[nH]c4c(-n5cnc(C)n5)ncc(OC)c34)CC2)c2ccccc2)o1 [Example 130, 1-[4-(1-Phenyl-1-(5-isopropenyl-1,3,4-oxadiazol-2-yl)-methylene)-piperidin-1-yl]-2-[4-methoxy-7-(3-methyl-1,2,4-triazol-1-yl)-6-azaindol-3-yl]-ethane-1,2-dione]",< 1000 nM
